Test [1] deals with Cyclin-dependent kinase 2 (Homo sapiens, UniProt P24941).
The target of test [2] is T1, Ras-related protein Rab-10 (Homo sapiens, UniProt P61026).
T1 sequence (P61026 whole entry): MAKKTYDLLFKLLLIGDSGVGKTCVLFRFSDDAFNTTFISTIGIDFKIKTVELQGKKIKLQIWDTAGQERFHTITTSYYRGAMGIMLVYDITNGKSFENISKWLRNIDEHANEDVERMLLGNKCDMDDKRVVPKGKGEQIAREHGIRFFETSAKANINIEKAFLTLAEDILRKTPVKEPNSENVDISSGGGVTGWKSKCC

Test [3] has as its target Tyrosine-protein kinase Lyn (Homo sapiens, UniProt P07948).
Test [4] concerns the target Receptor-interacting serine/threonine-protein kinase 2 (Homo sapiens, UniProt O43353).
The target in test [5] is T2, Dual specificity mitogen-activated protein kinase kinase 5 (Homo sapiens, UniProt Q13163).
T2 sequence (Q13163 whole entry): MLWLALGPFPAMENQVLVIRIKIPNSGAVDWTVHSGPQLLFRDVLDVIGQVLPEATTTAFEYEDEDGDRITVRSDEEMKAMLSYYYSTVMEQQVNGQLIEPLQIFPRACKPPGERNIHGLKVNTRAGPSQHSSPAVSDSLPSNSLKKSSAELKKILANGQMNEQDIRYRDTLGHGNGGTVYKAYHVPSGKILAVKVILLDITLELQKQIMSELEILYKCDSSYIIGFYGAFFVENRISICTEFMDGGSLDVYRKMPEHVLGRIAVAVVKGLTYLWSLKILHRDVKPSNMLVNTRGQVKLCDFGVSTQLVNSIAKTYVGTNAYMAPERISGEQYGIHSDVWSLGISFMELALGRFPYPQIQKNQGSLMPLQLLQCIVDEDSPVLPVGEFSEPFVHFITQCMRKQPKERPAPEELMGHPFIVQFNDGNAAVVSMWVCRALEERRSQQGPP

Test [6] concerns the target Mitogen-activated protein kinase kinase kinase kinase 5 (Homo sapiens, UniProt Q9Y4K4).
Test [7] addresses T3, Glycogen phosphorylase, liver form (Homo sapiens, UniProt P06737).
T3 sequence (P06737 whole entry): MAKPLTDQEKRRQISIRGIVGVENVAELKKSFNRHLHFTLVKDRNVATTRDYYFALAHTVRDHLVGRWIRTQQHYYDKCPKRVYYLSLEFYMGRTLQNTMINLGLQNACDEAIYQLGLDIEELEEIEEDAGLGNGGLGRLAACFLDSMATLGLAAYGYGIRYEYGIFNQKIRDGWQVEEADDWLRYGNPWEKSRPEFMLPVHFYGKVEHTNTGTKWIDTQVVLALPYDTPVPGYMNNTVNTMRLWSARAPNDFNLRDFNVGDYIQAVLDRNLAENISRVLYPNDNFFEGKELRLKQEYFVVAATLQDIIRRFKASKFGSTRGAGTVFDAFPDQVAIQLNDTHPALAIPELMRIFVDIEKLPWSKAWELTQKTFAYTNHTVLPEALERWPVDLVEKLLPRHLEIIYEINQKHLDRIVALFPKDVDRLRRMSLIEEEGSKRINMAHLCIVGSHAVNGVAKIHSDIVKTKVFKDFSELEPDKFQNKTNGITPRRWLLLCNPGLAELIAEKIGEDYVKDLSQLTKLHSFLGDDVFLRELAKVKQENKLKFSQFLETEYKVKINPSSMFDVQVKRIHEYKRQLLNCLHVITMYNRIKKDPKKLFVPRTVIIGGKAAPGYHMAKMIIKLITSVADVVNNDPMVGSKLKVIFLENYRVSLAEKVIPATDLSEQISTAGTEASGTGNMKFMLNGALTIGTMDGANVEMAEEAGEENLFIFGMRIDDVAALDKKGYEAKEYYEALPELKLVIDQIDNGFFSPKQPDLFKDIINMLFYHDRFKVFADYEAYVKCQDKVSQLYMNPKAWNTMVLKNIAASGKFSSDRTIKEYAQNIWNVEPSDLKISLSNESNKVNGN
The format is subcellular, K-562, COLO 205, SK-N-BE(2) and MV-4-11, Cell lysate. As to conditions: read-out: Kd apparent.

In test [8] the target is cAMP-dependent protein kinase catalytic subunit gamma (Homo sapiens, UniProt P22612).
Test [9] deals with Bone morphogenetic protein receptor type-1B (Homo sapiens, UniProt O00238).
For test [10], the target named is Non-receptor tyrosine-protein kinase TYK2 (Homo sapiens, UniProt P29597).
For test [11], the target named is DnaJ homolog subfamily A member 1 (Homo sapiens, UniProt P31689).
For a further test, the target named is Ephrin type-A receptor 5 (Homo sapiens, UniProt P54756).
The target of test [12] is Serine/threonine-protein kinase SIK2 (Homo sapiens, UniProt Q9H0K1).
The target in the next test is Deoxycytidine kinase (Homo sapiens, UniProt P27707).
The target of test [13] is Platelet-derived growth factor receptor beta (Homo sapiens, UniProt P09619).
Test [14] addresses Mitogen-activated protein kinase 14 (Homo sapiens, UniProt Q16539).
The target in test [15] is Dual specificity testis-specific protein kinase 1 (Homo sapiens, UniProt Q15569).

Calls of active or inactive are those of the source. Cut-off read from the data, not from the text of the source, for most assays here: actives have a measured Kd and inactives only a lower limit. Some results are limits rather than exact numbers.
Note: in the data inactive means no Kd found up to 30 µM.

Sequence of Serine/threonine-protein kinase SIK2 (Q9H0K1 whole entry): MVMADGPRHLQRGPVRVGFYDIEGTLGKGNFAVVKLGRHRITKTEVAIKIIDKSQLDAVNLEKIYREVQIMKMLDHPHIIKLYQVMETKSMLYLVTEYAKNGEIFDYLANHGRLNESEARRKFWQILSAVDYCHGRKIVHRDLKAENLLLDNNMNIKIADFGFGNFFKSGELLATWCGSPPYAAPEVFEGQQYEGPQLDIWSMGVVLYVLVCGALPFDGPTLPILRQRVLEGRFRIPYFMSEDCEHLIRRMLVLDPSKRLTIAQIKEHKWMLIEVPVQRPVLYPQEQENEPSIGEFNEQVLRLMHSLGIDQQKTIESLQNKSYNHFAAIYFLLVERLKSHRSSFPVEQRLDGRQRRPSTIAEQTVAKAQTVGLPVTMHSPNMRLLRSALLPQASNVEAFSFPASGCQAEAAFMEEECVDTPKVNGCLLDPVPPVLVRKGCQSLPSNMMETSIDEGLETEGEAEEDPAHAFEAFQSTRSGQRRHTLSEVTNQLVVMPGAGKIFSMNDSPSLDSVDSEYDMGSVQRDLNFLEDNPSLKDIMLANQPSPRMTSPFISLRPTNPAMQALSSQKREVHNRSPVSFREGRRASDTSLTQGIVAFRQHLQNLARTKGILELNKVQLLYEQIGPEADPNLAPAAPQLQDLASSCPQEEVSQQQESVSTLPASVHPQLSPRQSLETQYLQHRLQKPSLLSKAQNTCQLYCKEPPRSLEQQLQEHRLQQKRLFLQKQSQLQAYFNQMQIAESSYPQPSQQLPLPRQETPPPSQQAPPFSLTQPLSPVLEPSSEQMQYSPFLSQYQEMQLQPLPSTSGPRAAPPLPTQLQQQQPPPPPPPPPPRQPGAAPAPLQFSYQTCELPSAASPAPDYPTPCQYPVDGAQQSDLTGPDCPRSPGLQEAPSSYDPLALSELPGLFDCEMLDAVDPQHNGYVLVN
Sequence of Non-receptor tyrosine-protein kinase TYK2 (P29597 whole entry): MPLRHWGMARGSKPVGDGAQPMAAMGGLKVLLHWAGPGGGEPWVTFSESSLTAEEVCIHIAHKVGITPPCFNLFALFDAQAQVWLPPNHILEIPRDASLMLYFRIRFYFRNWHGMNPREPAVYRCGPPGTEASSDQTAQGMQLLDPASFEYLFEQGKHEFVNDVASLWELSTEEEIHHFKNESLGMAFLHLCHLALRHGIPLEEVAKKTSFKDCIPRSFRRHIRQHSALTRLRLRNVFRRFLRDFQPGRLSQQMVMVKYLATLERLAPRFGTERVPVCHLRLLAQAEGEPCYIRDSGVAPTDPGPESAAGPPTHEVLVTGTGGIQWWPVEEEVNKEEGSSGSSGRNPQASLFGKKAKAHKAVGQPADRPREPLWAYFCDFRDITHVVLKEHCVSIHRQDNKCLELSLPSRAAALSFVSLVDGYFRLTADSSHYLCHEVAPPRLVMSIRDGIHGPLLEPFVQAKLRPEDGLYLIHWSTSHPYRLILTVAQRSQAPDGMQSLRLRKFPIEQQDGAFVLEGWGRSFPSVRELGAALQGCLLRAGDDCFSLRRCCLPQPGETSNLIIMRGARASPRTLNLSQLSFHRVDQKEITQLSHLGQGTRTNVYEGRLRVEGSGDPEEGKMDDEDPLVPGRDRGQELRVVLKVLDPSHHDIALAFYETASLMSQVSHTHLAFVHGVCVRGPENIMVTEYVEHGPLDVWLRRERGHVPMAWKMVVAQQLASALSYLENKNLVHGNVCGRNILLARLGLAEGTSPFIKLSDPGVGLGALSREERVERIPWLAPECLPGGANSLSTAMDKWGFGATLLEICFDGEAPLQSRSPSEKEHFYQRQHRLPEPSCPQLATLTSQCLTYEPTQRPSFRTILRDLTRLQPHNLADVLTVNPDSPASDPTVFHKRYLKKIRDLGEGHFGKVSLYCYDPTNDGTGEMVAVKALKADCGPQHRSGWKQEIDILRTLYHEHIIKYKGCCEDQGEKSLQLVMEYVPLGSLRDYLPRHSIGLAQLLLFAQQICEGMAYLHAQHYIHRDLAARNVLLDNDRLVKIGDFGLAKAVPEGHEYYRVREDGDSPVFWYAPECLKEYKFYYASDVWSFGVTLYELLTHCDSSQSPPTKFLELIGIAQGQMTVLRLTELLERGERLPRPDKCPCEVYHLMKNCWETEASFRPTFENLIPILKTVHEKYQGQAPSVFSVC
Sequence of Receptor-interacting serine/threonine-protein kinase 2 (O43353 whole entry): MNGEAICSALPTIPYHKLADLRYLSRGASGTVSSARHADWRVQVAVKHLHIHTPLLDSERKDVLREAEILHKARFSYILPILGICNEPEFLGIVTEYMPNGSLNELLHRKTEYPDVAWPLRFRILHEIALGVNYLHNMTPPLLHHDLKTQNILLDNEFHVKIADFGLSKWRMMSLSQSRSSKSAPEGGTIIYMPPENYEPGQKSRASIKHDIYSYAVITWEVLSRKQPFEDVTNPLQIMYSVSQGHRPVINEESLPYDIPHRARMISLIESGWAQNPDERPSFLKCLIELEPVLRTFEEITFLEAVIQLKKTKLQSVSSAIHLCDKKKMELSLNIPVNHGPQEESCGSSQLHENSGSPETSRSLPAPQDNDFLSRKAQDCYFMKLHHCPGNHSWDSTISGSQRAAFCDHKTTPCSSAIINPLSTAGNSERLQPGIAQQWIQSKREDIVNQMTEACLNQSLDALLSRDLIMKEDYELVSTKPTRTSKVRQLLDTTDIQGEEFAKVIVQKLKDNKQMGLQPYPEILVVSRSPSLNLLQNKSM
Sequence of Dual specificity testis-specific protein kinase 1 (Q15569 whole entry): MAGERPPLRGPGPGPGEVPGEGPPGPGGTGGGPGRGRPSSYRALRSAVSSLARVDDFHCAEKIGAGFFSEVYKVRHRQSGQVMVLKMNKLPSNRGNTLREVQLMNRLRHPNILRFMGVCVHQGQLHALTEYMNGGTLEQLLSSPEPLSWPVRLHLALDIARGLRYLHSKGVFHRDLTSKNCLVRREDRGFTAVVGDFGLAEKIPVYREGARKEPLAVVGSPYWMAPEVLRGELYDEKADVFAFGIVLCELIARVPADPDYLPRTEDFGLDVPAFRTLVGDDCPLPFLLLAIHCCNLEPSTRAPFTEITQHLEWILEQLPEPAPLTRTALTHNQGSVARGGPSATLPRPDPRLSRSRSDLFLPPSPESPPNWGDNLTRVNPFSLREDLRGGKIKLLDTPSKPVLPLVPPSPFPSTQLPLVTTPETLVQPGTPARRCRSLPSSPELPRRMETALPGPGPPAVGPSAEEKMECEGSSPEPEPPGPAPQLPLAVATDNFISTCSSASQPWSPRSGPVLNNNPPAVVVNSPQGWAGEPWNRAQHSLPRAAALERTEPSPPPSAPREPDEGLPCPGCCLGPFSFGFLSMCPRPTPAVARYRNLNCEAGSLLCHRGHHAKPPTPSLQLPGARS
Sequence of Bone morphogenetic protein receptor type-1B (O00238 whole entry): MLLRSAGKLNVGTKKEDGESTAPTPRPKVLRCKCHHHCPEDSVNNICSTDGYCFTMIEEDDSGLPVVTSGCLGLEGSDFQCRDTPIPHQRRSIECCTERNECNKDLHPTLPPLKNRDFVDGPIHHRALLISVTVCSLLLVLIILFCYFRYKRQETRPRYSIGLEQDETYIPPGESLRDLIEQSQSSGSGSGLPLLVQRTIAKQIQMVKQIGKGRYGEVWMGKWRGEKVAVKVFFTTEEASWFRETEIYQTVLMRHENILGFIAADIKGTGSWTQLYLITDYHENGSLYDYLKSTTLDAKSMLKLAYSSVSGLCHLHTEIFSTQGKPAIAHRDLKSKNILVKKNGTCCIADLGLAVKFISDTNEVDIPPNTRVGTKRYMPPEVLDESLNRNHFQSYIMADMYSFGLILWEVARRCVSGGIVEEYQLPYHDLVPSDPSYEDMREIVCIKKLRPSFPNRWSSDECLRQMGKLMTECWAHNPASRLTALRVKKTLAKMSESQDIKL
Sequence of Tyrosine-protein kinase Lyn (P07948 whole entry): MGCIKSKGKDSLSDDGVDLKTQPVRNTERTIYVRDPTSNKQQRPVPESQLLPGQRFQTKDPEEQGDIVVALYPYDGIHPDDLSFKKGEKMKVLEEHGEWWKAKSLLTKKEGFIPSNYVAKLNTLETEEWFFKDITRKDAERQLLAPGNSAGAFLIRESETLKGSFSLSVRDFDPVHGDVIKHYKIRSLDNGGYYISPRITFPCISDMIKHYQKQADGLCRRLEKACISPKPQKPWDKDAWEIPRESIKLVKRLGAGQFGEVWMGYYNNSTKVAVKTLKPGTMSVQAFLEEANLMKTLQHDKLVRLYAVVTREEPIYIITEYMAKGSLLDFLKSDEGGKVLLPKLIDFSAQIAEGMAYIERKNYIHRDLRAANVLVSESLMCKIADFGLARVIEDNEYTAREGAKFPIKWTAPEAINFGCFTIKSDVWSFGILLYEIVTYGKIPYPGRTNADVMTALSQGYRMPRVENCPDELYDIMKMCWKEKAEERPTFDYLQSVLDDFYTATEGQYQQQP
Sequence of cAMP-dependent protein kinase catalytic subunit gamma (P22612 whole entry): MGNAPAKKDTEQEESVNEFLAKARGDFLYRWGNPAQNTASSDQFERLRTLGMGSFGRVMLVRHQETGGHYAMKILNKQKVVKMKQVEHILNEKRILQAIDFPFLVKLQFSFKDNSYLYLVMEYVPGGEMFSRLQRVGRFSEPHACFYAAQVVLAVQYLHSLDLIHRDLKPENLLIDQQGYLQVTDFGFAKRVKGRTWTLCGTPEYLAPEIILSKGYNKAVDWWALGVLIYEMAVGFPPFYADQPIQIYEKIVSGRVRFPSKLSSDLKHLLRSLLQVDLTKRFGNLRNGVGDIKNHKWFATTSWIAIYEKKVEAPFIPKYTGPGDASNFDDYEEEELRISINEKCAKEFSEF
Sequence of DnaJ homolog subfamily A member 1 (P31689 whole entry): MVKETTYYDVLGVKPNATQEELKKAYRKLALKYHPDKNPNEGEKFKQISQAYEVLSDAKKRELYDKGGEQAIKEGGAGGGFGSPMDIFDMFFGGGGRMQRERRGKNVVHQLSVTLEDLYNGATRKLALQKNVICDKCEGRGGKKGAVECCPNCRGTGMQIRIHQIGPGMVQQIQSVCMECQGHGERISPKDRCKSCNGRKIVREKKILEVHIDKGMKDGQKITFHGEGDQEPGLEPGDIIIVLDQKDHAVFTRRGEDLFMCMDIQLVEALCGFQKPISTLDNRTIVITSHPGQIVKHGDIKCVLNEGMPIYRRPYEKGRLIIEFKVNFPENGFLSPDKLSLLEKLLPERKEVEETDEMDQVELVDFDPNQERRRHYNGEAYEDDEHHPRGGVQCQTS

For `C[C@@H](Oc1cc(C(=O)Nc2ccc(C(=O)N3CCN(C)CC3)cc2)nnc1N)c1c(Cl)ccc(F)c1Cl`, the Kd in [1] is > 30 µM (inactive); in [2], > 30 µM (inactive); in test [3], > 30 µM (inactive); in test [4], > 30 µM (inactive); in test [5], > 30 µM (inactive); in [6], 20.9 µM (active). Moreover, the Kd (in test [7]; in [8]; in [9]; in [10]; in test [11]; at Ephrin type-A receptor 5) was > 30 µM (inactive) each time. The Kd (in [12]; at Deoxycytidine kinase; in [13]; in test [14]) was > 30 µM (inactive) in each case.
As to `CC(=O)c1cnc2ccc(-c3cc(Cl)c(O)c(Cl)c3)nc2c1N[C@H]1CC[C@H](CN(C)C)CC1`, the Kd was 0.091 µM (active) in test [1]; > 30 µM (inactive) in [2]; 0.121 µM (active) in test [3]; 0.005 µM (active) in test [4]; 0.058 µM (active) in test [5]; 0.071 µM (active) in test [6]. Further, the Kd in test [7] is > 30 µM (inactive); in test [8] it was > 30 µM (inactive); in test [9], 0.002 µM (active); in test [10], > 30 µM (inactive); in [11], > 30 µM (inactive); at Ephrin type-A receptor 5, 0.075 µM (active). In addition, the Kd is 0.24 µM (active) in test [12], > 30 µM (inactive) at Deoxycytidine kinase, 0.103 µM (active) in [13] and > 30 µM (inactive) in test [14].
Turning to `CCNC(=O)C#Cc1ccc2c(c1)NC(=O)/C2=C(\Nc1ccc(CN(C)C)cc1)c1ccccc1`, the Kd is > 30 µM (inactive) in test [1]; > 30 µM (inactive) in [2]; 0.097 µM (active) in [3]; > 30 µM (inactive) in [4]; 0.177 µM (active) in test [5]; 1.36 µM (active) in test [6]. Besides, the Kd (in test [7]; in test [8]; in test [9]; in test [10]; in test [11]; at Ephrin type-A receptor 5) was > 30 µM (inactive) in each case. Moreover, the Kd is 3.51 µM (active) in test [12], > 30 µM (inactive) in test [15], > 30 µM (inactive) on Deoxycytidine kinase and > 30 µM (inactive) in test [14].
Turning to `Cc1nc2cc(-c3nn(C(C)C)c4ncnc(N)c34)ccc2o1`, the Kd in test [1] was > 30 µM (inactive); in [2], > 30 µM (inactive); in test [3], > 30 µM (inactive); in test [4], 0.178 µM (active); in test [6], > 30 µM (inactive); in test [7] it was > 30 µM (inactive). The Kd was 0.123 µM (active) in test [9]; > 30 µM (inactive) in [10]; > 30 µM (inactive) in [11]; > 30 µM (inactive) on Ephrin type-A receptor 5; > 30 µM (inactive) in [12]; > 30 µM (inactive) in test [15]. For the same molecule, the Kd at Deoxycytidine kinase was 6.17 µM; in test [14], > 30 µM (inactive).
In the case of `Nc1ncnc2c1c(-c1cccc(OCc3ccccc3)c1)cn2[C@H]1C[C@@H](CN2CCC2)C1` [AEW-541], the Kd was > 30 µM (inactive) in test [1]; > 30 µM (inactive) in test [2]; 2.44 µM (active) in test [3]; 0.355 µM (active) in test [4]; 0.146 µM (active) in test [5]; 2.49 µM (active) in [6]. Further, the Kd in [7] is > 30 µM (inactive); in [8], > 30 µM (inactive); in [9] it was 1.44 µM (active); in test [10], > 30 µM (inactive); in test [11] it was > 30 µM (inactive); at Ephrin type-A receptor 5, > 30 µM (inactive). The Kd (in [12]; at Deoxycytidine kinase; in test [13]; in [14]) was > 30 µM (inactive) each time.
Take `COc1cc2ncnc(Oc3cccc(NC(=O)Nc4cc(C(C)(C)C(F)(F)F)on4)c3)c2cc1OC` [CEP-32496]: the Kd is > 30 µM (inactive) in test [1]; > 30 µM (inactive) in test [2]; 0.771 µM (active) in test [3]; 0.442 µM (active) in test [4]; > 30 µM (inactive) in test [5]; 20.1 µM (active) in test [6]. Moreover, the Kd in test [7] was > 30 µM (inactive); in test [9], > 30 µM (inactive); in test [10], > 30 µM (inactive); in test [11] it was > 30 µM (inactive); at Ephrin type-A receptor 5 it was 0.401 µM; in test [12], > 30 µM (inactive). Further, the figures for the Kd (in test [15]; at Deoxycytidine kinase; in test [14]) were > 30 µM (inactive), > 30 µM (inactive) and 0.566 µM (active), respectively.
`CNC(=O)c1nn(C)c2c1C(C)(C)Cc1cnc(Nc3ccc(N4CCN(C)CC4)cc3)nc1-2` [MILCICLIB]: the Kd is 0.739 µM (active) in test [1]; > 30 µM (inactive) in [2]; 3.54 µM (active) in [3]; > 30 µM (inactive) in [4]; > 30 µM (inactive) in test [5]; 10 µM (active) in [6]. For the same molecule, the Kd in [7] was > 30 µM (inactive); in [8], > 30 µM (inactive); in [9] it was > 30 µM (inactive); in [10] it was > 30 µM (inactive); in [11] it was > 30 µM (inactive); at Ephrin type-A receptor 5 it was 0.147 µM (active). For the same molecule, the Kd in test [12] was 0.11 µM (active); in [15] it was > 30 µM (inactive); at Deoxycytidine kinase, > 30 µM (inactive); in test [14], > 30 µM (inactive).
Regarding `CN1CCN(CCOc2cc(OC3CCOCC3)c3c(Nc4c(Cl)ccc5c4OCO5)ncnc3c2)CC1` [SARACATINIB], the Kd was > 30 µM (inactive) in test [1]; > 30 µM (inactive) in test [2]; 0.113 µM (active) in test [3]; 0.002 µM (active) in [4]; 27.1 µM in test [6]; > 30 µM (inactive) in test [7]. For the same molecule, the Kd in test [8] is > 30 µM (inactive); in [9] it was 0.029 µM; in [10], > 30 µM (inactive); in test [11], > 30 µM (inactive); on Ephrin type-A receptor 5, 2.38 µM (active); in test [12], 1.41 µM (active). The Kd (in [15]; on Deoxycytidine kinase; in [14]) was > 30 µM (inactive) each time.

Values taken from ChEMBL document CHEMBL3991601, “The target landscape of clinical kinase drugs” (Science, 2017).
